Reference: patent US20230295200A1 (REGENTS OF THE UNIVERSITY OF MICHIGAN, priority 2022, published 2023)

How the values were obtained:
STAT6 protein = biological target: T1, STAT6 protein (Homo sapiens, UniProt P42226); test: Fluorescence polarization (FP) binding assay, STAT6; conditions: FP competition, 5 nM fluorescein-labeled tracer, 200 nM protein, PBS pH7.4; read-out: Binding STAT6
T1 sequence (P42226 1-847): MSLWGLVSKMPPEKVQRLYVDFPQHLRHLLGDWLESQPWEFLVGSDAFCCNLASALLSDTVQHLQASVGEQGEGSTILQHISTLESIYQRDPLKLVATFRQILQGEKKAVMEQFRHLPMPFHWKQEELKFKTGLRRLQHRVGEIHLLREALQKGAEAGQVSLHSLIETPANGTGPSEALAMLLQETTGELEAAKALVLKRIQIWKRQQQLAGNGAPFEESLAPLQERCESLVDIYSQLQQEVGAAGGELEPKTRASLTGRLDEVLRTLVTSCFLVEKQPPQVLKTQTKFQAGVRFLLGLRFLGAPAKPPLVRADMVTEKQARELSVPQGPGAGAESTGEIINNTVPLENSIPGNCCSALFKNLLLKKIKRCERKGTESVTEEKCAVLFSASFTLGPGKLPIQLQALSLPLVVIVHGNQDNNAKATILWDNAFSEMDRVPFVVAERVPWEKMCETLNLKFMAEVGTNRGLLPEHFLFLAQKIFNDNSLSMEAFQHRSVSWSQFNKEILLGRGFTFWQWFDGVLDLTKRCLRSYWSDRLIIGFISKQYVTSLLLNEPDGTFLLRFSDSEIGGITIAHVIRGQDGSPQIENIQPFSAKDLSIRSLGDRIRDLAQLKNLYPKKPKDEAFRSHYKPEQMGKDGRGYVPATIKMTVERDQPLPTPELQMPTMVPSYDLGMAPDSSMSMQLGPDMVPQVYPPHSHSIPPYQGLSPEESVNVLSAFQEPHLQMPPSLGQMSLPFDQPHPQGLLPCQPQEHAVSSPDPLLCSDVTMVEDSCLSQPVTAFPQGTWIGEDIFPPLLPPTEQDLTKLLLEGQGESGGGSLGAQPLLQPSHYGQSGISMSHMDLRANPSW
Outline: (§1)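 Polarization read after 1 h equilibration at room temperature (preceded by 15 min shaking) of 200 nM STAT5 and/or STAT6 with 5 nM fluorescein tracer. Buffer: PBS pH 7.4 plus 0.01% BGG, 0.01% Tween-20, 2 mM DTT; inhibition constants derived by nonlinear fitting.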

STAT5A = biological target: T2, STAT5A (Homo sapiens, UniProt P42229); test: Fluorescence polarization (FP) binding assay, STAT5A; conditions: FP competition, 5 nM fluorescein-labeled tracer, 200 nM protein, PBS pH7.4
T2 sequence (P42229 1-794): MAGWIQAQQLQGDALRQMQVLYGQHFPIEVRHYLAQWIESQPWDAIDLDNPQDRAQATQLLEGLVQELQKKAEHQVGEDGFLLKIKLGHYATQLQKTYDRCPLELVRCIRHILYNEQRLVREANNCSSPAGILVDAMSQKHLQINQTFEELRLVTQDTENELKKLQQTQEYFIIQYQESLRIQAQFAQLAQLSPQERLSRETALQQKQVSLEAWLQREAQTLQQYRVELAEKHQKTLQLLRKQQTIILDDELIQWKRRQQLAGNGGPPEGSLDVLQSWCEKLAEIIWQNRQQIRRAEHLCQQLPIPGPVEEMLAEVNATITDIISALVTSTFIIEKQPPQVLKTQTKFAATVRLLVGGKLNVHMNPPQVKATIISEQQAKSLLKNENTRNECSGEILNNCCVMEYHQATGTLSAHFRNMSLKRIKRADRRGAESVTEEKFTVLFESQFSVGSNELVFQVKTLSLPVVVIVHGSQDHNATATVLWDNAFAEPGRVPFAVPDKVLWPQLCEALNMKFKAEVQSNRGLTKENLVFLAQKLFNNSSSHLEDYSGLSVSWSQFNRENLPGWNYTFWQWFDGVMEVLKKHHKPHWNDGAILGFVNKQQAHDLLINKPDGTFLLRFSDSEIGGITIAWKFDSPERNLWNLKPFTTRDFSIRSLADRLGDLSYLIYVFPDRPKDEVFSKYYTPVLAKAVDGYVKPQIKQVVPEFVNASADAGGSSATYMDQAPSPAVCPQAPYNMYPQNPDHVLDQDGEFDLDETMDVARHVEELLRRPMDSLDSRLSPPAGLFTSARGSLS
Outline: as §1

SMILES	Ki (STAT6 protein)	Ki (STAT5A)
CC(C)(C)[C@H](NC(=O)c1cc2cc(C(F)(F)P(=O)(O)O)ccc2s1)C(=O)N1CCC[C@H]1C(=O)N1CCN(S(C)(=O)=O)[C@H](c2ccccc2)C1 [Compound 168, ((2-(((S)-3,3-dimethyl-1-((S)-2-((R)-4-(methylsulfonyl)-3-phenylpiperazine-1-carbonyl)pyrrolidin-1-yl)-1-oxobutan-2-yl)carbamoyl)benzo[b]thiophen-5-yl)difluoromethyl)phosphonic acid]	1000 to 10000 nM	> 10000 nM
CC(=O)N1CCN(C(=O)[C@@H](NC(=O)c2cc3cc(C(F)(F)P(=O)(O)O)ccc3s2)C(C)(C)C)[C@H](C(=O)N2CCO[C@H](c3ccccc3)C2)C1 [Compound 170, ((2-(((S)-1-((S)-4-acetyl-2-((R)-2-phenylmorpholine-4-carbonyl)piperazin-1-yl)-3,3-dimethyl-1-oxobutan-2-yl)carbamoyl)benzo[b]thiophen-5-yl)difluoromethyl)phosphonic acid]	100 to 1000 nM	1000 to 10000 nM
CC(=O)N1CCN(C(=O)[C@@H](NC(=O)c2cc3cc(C(F)(F)P(=O)(O)O)ccc3s2)C(C)(C)C)[C@H](C(=O)N2CCO[C@@H](c3ccccc3)C2)C1 [Compound 171, ((2-(((S)-1-((S)-4-acetyl-2-((S)-2-phenylmorpholine-4-carbonyl)piperazin-1-yl)-3,3-dimethyl-1-oxobutan-2-yl)carbamoyl)benzo[b]thiophen-5-yl)difluoromethyl)phosphonic acid]	1000 to 10000 nM	> 10000 nM
CC(=O)N1CCN(C(=O)[C@@H](NC(=O)c2cc3cc(C(F)(F)P(=O)(O)O)ccc3s2)C(C)(C)C)[C@H](C(=O)N2CCC[C@H](c3ccccc3)C2)C1 [Compound 175, ((2-(((S)-1-((S)-4-acetyl-2-((R)-3-phenylpiperidine-1-carbonyl)piperazin-1-yl)-3,3-dimethyl-1-oxobutan-2-yl)carbamoyl)benzo[b]thiophen-5-yl)difluoromethyl)phosphonic acid]	100 to 1000 nM	1000 to 10000 nM
CC(=O)N1CCN(C(=O)[C@@H](NC(=O)c2cc3cc(C(F)(F)P(=O)(O)O)ccc3s2)C(C)(C)C)[C@H](C(=O)N2CC[C@H](c3ccccc3)C2)C1 [Compound 176, ((2-(((S)-1-((S)-4-acetyl-2-((R)-3-phenylpyrrolidine-1-carbonyl)piperazin-1-yl)-3,3-dimethyl-1-oxobutan-2-yl)carbamoyl)benzo[b]thiophen-5-yl)difluoromethyl)phosphonic acid]	1000 to 10000 nM	1000 to 10000 nM
CC(=O)N1CCN(C(=O)[C@@H](NC(=O)c2cc3cc(C(F)(F)P(=O)(O)O)ccc3s2)C(C)(C)C)[C@H](C(=O)N2CC[C@@H](c3ccccc3)C2)C1 [Compound 177, ((2-(((S)-1-((S)-4-acetyl-2-((S)-3-phenylpyrrolidine-1-carbonyl)piperazin-1-yl)-3,3-dimethyl-1-oxobutan-2-yl)carbamoyl)benzo[b]thiophen-5-yl)difluoromethyl)phosphonic acid]	1000 to 10000 nM	> 10000 nM
CC(=O)N1CC[C@H]2CC[C@@H](C(=O)N3CCS(=O)(=O)C(c4ccccc4)C3)N2C(=O)[C@@H](NC(=O)c2cc3cc(C(F)(F)P(=O)(O)O)ccc3s2)C1 (stereo partly drawn) [Compound 178, ((2-(((5S,8S,10aR)-3-acetyl-8-(1,1-dioxido-2-phenylthiomorpholine-4-carbonyl)-6-oxodecahydropyrrolo[1,2-a][1,5]diazocin-5-yl)carbamoyl)benzo[b]thiophen-5-yl)difluoromethyl)phosphonic acid]	100 to 1000 nM	1000 to 10000 nM

More lines, now with the values ahead:

Ki (STAT6 protein)	Ki (STAT5A)	SMILES
1000 to 10000 nM	> 10000 nM	CC(=O)N1CCN(C(=O)[C@@H]2CCCN2C(=O)[C@@H](NC(=O)c2cc3cc(C(F)(F)P(=O)(O)O)ccc3s2)C(C)(C)C)C[C@@H]1c1ccccc1 [Compound 167, ((2-(((S)-1-((S)-2-((S)-4-acetyl-3-phenylpiperazine-1-carbonyl)pyrrolidin-1-yl)-3,3-dimethyl-1-oxobutan-2-yl)carbamoyl)benzo[b]thiophen-5-yl)difluoromethyl)phosphonic acid]
1000 to 10000 nM	> 10000 nM	CC(C)(C)[C@H](NC(=O)c1cc2cc(C(F)(F)P(=O)(O)O)ccc2s1)C(=O)N1CCC[C@H]1C(=O)N1CCN(S(C)(=O)=O)[C@@H](c2ccccc2)C1 [Compound 169, ((2-(((S)-3,3-dimethyl-1-((S)-2-((S)-4-(methylsulfonyl)-3-phenylpiperazine-1-carbonyl)pyrrolidin-1-yl)-1-oxobutan-2-yl)carbamoyl)benzo[b]thiophen-5-yl)difluoromethyl)phosphonic acid]
100 to 1000 nM	1000 to 10000 nM	CC(C)(C)[C@H](NC(=O)c1cc2cc(C(F)(F)P(=O)(O)O)ccc2s1)C(=O)N1CCCC[C@H]1C(=O)N1CCO[C@H](c2ccccc2)C1 [Compound 179, ((2-(((S)-3,3-dimethyl-1-oxo-1-((S)-2-((R)-2-phenylmorpholine-4-carbonyl)piperidin-1-yl)butan-2-yl)carbamoyl)benzo[b]thiophen-5-yl)difluoromethyl)phosphonic acid]
100 to 1000 nM	1000 to 10000 nM	CC(C)(C)[C@H](NC(=O)c1cc2cc(C(F)(F)P(=O)(O)O)ccc2s1)C(=O)N1CCCC[C@H]1C(=O)N1CCC[C@H](c2ccccc2)C1 [Compound 180, ((2-(((S)-3,3-dimethyl-1-oxo-1-((S)-2-((R)-3-phenylpiperidine-1-carbonyl)piperidin-1-yl)butan-2-yl)carbamoyl)benzo[b]thiophen-5-yl)difluoromethyl)phosphonic acid]
> 10000 nM	> 10000 nM	CC(C)(C)[C@H](NC(=O)c1cc2cc(C(F)(F)P(=O)(O)O)ccc2s1)C(=O)N1CCCC[C@H]1C(=O)N1Cc2ccccc2C1 [Compound 181, (difluoro(2-(((S)-1-((S)-2-(isoindoline-2-carbonyl)piperidin-1-yl)-3,3-dimethyl-1-oxobutan-2-yl)carbamoyl)benzo[b]thiophen-5-yl)methyl)phosphonic acid]
1000 to 10000 nM	100 to 1000 nM	CC(C)(C)[C@H](NC(=O)c1cc2cc(C(F)(F)P(=O)(O)O)ccc2s1)C(=O)N1CCCC[C@H]1C(=O)Nc1ncc(-c2ccccc2)s1 [Compound 182, ((2-(((S)-3,3-dimethyl-1-oxo-1-((S)-2-((5-phenylthiazol-2-yl)carbamoyl)piperidin-1-yl)butan-2-yl)carbamoyl)benzo[b]thiophen-5-yl)difluoromethyl)phosphonic acid]
100 to 1000 nM	1000 to 10000 nM	CC(C)(C)[C@H](NC(=O)c1cc2cc(C(F)(F)P(=O)(O)O)ccc2s1)C(=O)N1CCCCC[C@H]1C(=O)N1CCO[C@H](c2ccccc2)C1 [Compound 183, ((2-(((S)-3,3-dimethyl-1-oxo-1-((S)-2-((R)-2-phenylmorpholine-4-carbonyl)azepan-1-yl)butan-2-yl)carbamoyl)benzo[b]thiophen-5-yl)difluoromethyl)phosphonic acid]
100 to 1000 nM	1000 to 10000 nM	CC(C)(C)[C@H](NC(=O)c1cc2cc(C(F)(F)P(=O)(O)O)ccc2s1)C(=O)N1CCCCC[C@H]1C(=O)N1CCC[C@H](c2ccccc2)C1 [Compound 184, ((2-(((S)-3,3-dimethyl-1-oxo-1-((S)-2-((R)-3-phenylpiperidine-1-carbonyl)azepan-1-yl)butan-2-yl)carbamoyl)benzo[b]thiophen-5-yl)difluoromethyl)phosphonic acid]
